Consider three molecules from PMC9718561, “Multi-functional chitosan copolymer modified nanocrystals as oral andrographolide delivery systems for enhanced bioavailability and anti-inflammatory efficacy” (Drug Delivery, 2022).

Each structure is given as a SMILES string. Converted amounts (≈) assume the structure as drawn. Like-named read-outs stand apart in the source and are kept apart here.

Data set [1] is described as follows: Real-time distribution in the gastrointestinal tract (fluorescent labelling, live imaging). The format is in vivo. The following applies: SD rats, oral. As for the experimental part: We performed real-time distribution study to explore whether the functional materials have played their full enhancing ability in oral absorption. We used acridine orange to label SDS, fluorescein isothiocyanate isomer I to label TPGS, CS, SDS-TPGS and SDS-CS-TPGS, and rhodamine B to label ADR, respectively. […] The SDS-CS-TPGS + ADR group was administered with SDS-CS-TPGS and ADR at the same time. The animals were killed by cervical dislocation at the pre-set time points of 0.5 h, 1 h, 2 h and 3 h. Then the gastrointestinal tract was removed in time and put it into a small animal live imaging system (Lumina XR, PerkinElmer, America) for photographic observation.
The distribution of gastrointestinal segments in each group of animals at each time period was observed by in live imaging system (Figure 5A). […] In order to further understand the distribution of various materials and ADR in the gastrointestinal tract, we divided the gastrointestinal tract of SD rats into ten parts such as stomach, small intestine which divided into 8 sections on average and colon, as shown in Figure 5(B). […] For example, when SDS-CS-TPGS were taken orally with ADR, the time of 50% SDS-CS-TPGS passing part 4, part 5 and part 6 of small intestine was 0.67 ± 0.01 h, 0.98 ± 0.06 h and 1.04 ± 0.13 h, respectively, which were not much different from that of ADR, as the passing time of ADR in part 4, part 5 and part 6 was 0.65 ± 0.04 h, 1.02 ± 0.01 h and 1.03 ± 0.01 h, respectively. However, these times of other materials and ADR were different, indicating the materials and ADR could not reach the same site of gastrointestinal tract at the same time, which may limit the absorption enhancing ability of functional materials. Combining the results described above, we can conclude that materials in physical mixture may separate in intestinal, and synthesized copolymer could reduce the separation and has better ability to […] the absorption site of drug at the same time.
The passing times of 50% ADR and polymer materials passed through the fourth (T4(50)), fifth (T5(50)) and sixth (T6(50)) segments of small intestine of SD rats were shown in Table S2, and we can find the distribution of ADR and copolymer (S-C-T) were similar.

A short description of data set [2]: Saturated solubility study (shaking 24 h, HPLC). The format is physicochemical. As to conditions: read-out: Saturation solubility. The protocol:
Briefly, excess formulation powders were added into 5 mL buffers, and shaked at 37 °C for 24 h, then the undissolved drug was removed by centrifuging at 13, 000 rpm for 10 min and filtering with 0.22 μm microporous membrane. The drug concentration in the filtrate was determined by HPLC. The freshly prepared ANs, SANs, TANs and S-C-TANs were directly shaking for 24 h at 37 °C, and treated as that of andrographolide, thereafter. ADR was analyzed at 225 nm and at 35 °C using HPLC linked to Ultimate^Ⓡ XB-C18 (4.6 mm × 250 mm, 5 μm) column. The mobile phase which consisted of methanol and water (60:40, v/v) was pumped at 1 mL/min. The HPLC analysis met the methodological requirements by validating.

Data set [3] is described as follows: Oil-water partition coefficient (Log P). The format is physicochemical. An excerpt: Combining the saturated solubility and log P of each group (shown in Table S1, it could be seen that the greater the saturated solubility is, the greater the log P value is.
Data set [4] in a line: Pharmacokinetic study after gavage. The class given is in vivo. As to conditions: SD rats, 50 mg/kg by gavage. The protocol: We explored oral absorption enhancing ability of andrographolide nanocrystals by operating pharmacokinetic studies on SD rat. In brief, twenty-five SD rats were randomly divided into 5 groups, and administrated ADR-water (dispersed ADR in water), ANs, SANs, TANs and S-C-TANs at 50 mg/kg by gavage (Chen et al., [2014]). After administrated for 0.083, 0.25, 0.5, 0.75, 1, 2, 4, 6, 8, 12 and 24 h, about 0.3 mL blood sample was collected by retro-orbital puncture. The plasma was centrifuged at 4,000 r/min for 10 min at 4 °C and stored at −20 °C. The andrographolide concentrations in plasma samples were detected after treatments as following: 50 μL plasma samples, 25 μL luteolin solution (internal standard 10.11 μg/mL) and 200 μL methanol solution were mixed by vortexing for 5 min. The mixed solution was subsequently centrifuged at 12,000 rpm for 10 min and the supernatant was collected and dried at room temperature under a stream of nitrogen. The residue was reconstituted with 50 μL methanol and mixed by vortexing for 3 min. after centrifuging at 12,000 rpm for 10 min, the supernatant was injected into the HPLC system for analysis. The ADR concentration in plasma samples was detected by HPLC following the conditions shown in supplementary materials, and pharmacokinetic parameters were calculated using the DAS 3.3.0 pharmacokinetics program (developed by the Clinical Trial Center of Shanghai University of Traditional Chinese Medicine, Shanghai, China).
Andrographolide was analyzed at 225 nm using HPLC linked to a Ultimate^Ⓡ XB-C18 (4.6 mm ×250 mm, 5μm) column. The mobile phase, consisting of methanol and 0.2% phosphoric acid (46:54, v/v), was pumped at 1 mL/min. The column temperature was 35℃.

The test system of data set [5] is ear swelling ICR mice model. Put plainly: Arachidonic acid ear swelling model, ear swelling rate. The format is in vivo. The following applies: indomethacin 10 mg/kg po; ADR injection 10 mg/kg iv; ADR 100 mg/kg po; S-C-TANs L 25, M 50, H 100 mg/kg po. As for the experimental part: To explore whether the enhancing on bioavailability could result in enhanced therapeutic effect, we studied the anti-inflammatory efficacy of nanocrystal. The ear swelling ICR mice model was established by using arachidonic acid and the anti-inflammatory efficacy was evaluated by employing ear swelling rate of ICR mice serum levels of TNF-α, IL-6 and IL-1β, as pharmacodynamic index. In this study, fifty-six ICR mice were randomly divided into 8 groups, named control group (normal animal), model group (without drug), indomethacin group (positive drug, 10 mg/kg, po), ADR injection group (10 mg/kg, iv), ADR group (100 mg/kg, po), L-S-C-TANs group (low dose of S-C-TANs, 25 mg/kg, po), M-S-C-TANs group (middle dose of S-C-TANs, 50 mg/kg, po) and H-S-C-TANs group (high dose of S-C-TANs, 100 mg/kg, po). […] Cellular inflammatory factors, like TNF-α, IL-1β, and IL-6, were measured by Elisa Kit.
To explore whether the enhancing on bioavailability could result in enhanced therapeutic effect, we studied the anti-inflammatory efficacy of nanocrystal. The ear swelling ICR mice model was established by using arachidonic acid and the anti-inflammatory efficacy was evaluated by employing ear swelling rate of ICR mice serum levels of TNF-α, IL-6 and IL-1β, as pharmacodynamic index. […]

Data set [6] concerns MDCK cells. Put plainly: Cytotoxicity of nanocrystals. The format is cell-based. The following applies: drug concentration above 100 μg/mL.
The mark [7] stands for this setting: SDS-CS-TPGS and ADR administered at the same time.

`CCCCCCCCCCCCOS(=O)(=O)[O-].[Na+]` [SDS, Sodium dodecyl sulfate]: in data set [1] (given alone), the “T4(50), time of 50% passing the fourth segment of small intestine” value was 0.89 ± 0.03 h; the “T5(50), time of 50% passing the fifth segment of small intestine” value came out at 1.52 ± 0.12 h; the “T6(50), time of 50% passing the sixth segment of small intestine” value stood at 2.40 ± 0.02 h.

Consider `C=C1CC[C@@H]2[C@](C)(CO)[C@H](O)CC[C@@]2(C)[C@@H]1C/C=C1/C(=O)OC[C@H]1O` [ADR, andrographolide], for which the solubility at 24 h in data set [2] (citrate - disodium hydrogen phosphate buffer, 37 °C, pH 4, aqueous buffer, thermodynamic from solid, pH4.0 (C-DHPB)) was 37.68 ± 0.24 µg/mL (≈ 108 µM); in data set [2] (hydrochloric acid aqueous solution, 37 °C, pH 1.2, simulated gastric fluid, thermodynamic from solid, pH1.2 (HCl)), 38.2 ± 0.95 µg/mL (≈ 109 µM); in data set [2] (phosphate buffered saline, 37 °C, pH 6.8, aqueous buffer, thermodynamic from solid, pH6.8 (PBS)) it was 32.5 ± 0.42 µg/mL (≈ 92.8 µM); in data set [2] (purified water, 37℃), 40.8 ± 0.64 µg/mL (≈ 116 µM). In addition, the lipophilicity (logP) in data set [3] (Water, 25℃) was 1.78 ± 0.02; in data set [3] (Water, 37℃) it was 1.76 ± 0.01; in data set [3] (pH 1.2, pH1.2, 25℃) it was 1.85 ± 0.02; in data set [3] (pH 1.2, pH1.2, 37℃) it was 1.84 ± 0.02; in data set [3] (pH 4, pH4.0, 25℃), 1.85 ± 0.02; in data set [3] (pH 4, pH4.0, 37℃), 1.87 ± 0.02. The log partition coefficient (logP) in data set [3] (pH 6.8, pH6.8, 25℃) is 1.88 ± 0.02; in data set [3] (pH 6.8, pH6.8, 37℃), 1.94 ± 0.02. For the same molecule, the “Fr (relative bioavailability)” value in data set [4] (compared with ADR-Water) stood at 100%. Besides, the bioavailability in data set [4] (rat, plasma, po, read-out: Fa (absolute bioavailability)) amounted to 1.83%. The molecule also registered an AUC(0-inf) in data set [4] (rat, po, plasma) of 1290 ng·h/mL. The same molecule gave an exposure AUC(0-t) in data set [4] (rat, po, plasma) of 1290 ± 218 ng·h/mL. In data set [4] (rat, po, plasma), this molecule registered a Cmax of 229 ± 82 ng/mL. Further, in data set [4] (rat, po, plasma), the time to peak (Tmax) came out at 0.717 ± 0.415 h. This molecule showed a half-life in data set [4] (rat, po, plasma) of 2.81 ± 0.232 h. For the same molecule, in data set [4] (rat, po, plasma, read-out: CLz/F (converted)), the CL/F was 661 mL/min/kg. In addition, the MRT last in data set [4] (rat, po, plasma, read-out: MRT0-t) came out at 5.66 ± 1.26 h. In addition, the MRT inf in data set [4] (rat, po, plasma, read-out: MRT0-∞) stood at 5.75 ± 1.26 h. Further, the Vd/F in data set [4] (rat, po, plasma, read-out: Vz/F) came to 161 ± 31.4 L/kg. For the same molecule, the “T4(50), time of 50% passing the fourth segment of small intestine” value in data set [1] (setting [7]) was determined as 0.65 ± 0.04 h; in data set [1] (given alone), 0.65 ± 0.02 h. Further, the “T5(50), time of 50% passing the fifth segment of small intestine” value is 1.02 ± 0.01 h in data set [1] (setting [7]) and 1.16 ± 0.10 h in data set [1] (given alone). Also, the “T6(50), time of 50% passing the sixth segment of small intestine” value in data set [1] (setting [7]) amounted to 1.03 ± 0.01 h; in data set [1] (given alone), 2.08 ± 0.05 h. Also, the “anti-ear swelling efficacy, order of all groups” value in data set [5] was “ADR injection group > H-S-C-TANs group > positive drug group > M-S-C-TANs group > ADR group ≈ L-S-C-TANs group”. The cytotoxicity entry in data set [6] is on record as “toxicity of ADR emerged”.

With `COc1ccc2c(c1)c(CC(=O)O)c(C)n2C(=O)c1ccc(Cl)cc1` [indomethacin, Indomethacin], the “anti-ear swelling efficacy, order of all groups” value in data set [5] is “ADR injection group > H-S-C-TANs group > positive drug group > M-S-C-TANs group > ADR group ≈ L-S-C-TANs group”.

What is called logP is the decadic logarithm of the partition coefficient of the neutral form, usually between octanol and water. A high value points to a more lipophilic compound. A word on the bioavailability: it is the share of a dose that reaches the circulation, judged against a reference dose that is usually intravenous. A word on the AUC(0-inf): it is total exposure, with the tail of the curve extrapolated. The term AUC(0-t) denotes the area under the concentration-time curve up to a stated or last time point. Read a low AUC(0-t) as less exposure. The term Cmax denotes the peak of the concentration-time curve. In general, Tmax refers to the time from dosing to the highest level. For orientation: half-life means how long it takes for the measured level to halve.
